Source: ChEMBL document CHEMBL1208702, “Use of 2-[(18)F]fluoroethylazide for the Staudinger ligation - Preparation and characterisation of GABA(A) receptor binding 4-quinolones” (Bioorg Med Chem Lett, 2010)

Assays:
Brain [1] = test: Biodistribution in iv dosed Sprague-Dawley rats brain after 60 mins by gamma counter; assay type: ADME, organism-based; conditions: rat, in vivo, 1 h
[2] = Biodistribution in iv dosed Sprague-Dawley rats bladder and urine after 30 mins by gamma counter; assay type: ADME, organism-based; conditions: rat, in vivo, 0.5 h
Heart [3] = test: Biodistribution in iv dosed Sprague-Dawley rats heart after 0.5 min by gamma counter; assay type: ADME, organism-based; conditions: rat, in vivo
Heart [4] = test: Biodistribution in iv dosed Sprague-Dawley rats heart after 30 mins by gamma counter; assay type: ADME, organism-based; conditions: rat, in vivo, 0.5 h
Heart [5] = test: Biodistribution in iv dosed Sprague-Dawley rats heart after 2 mins by gamma counter; assay type: ADME, organism-based; conditions: rat, in vivo
Blood [6] = test: Biodistribution in iv dosed Sprague-Dawley rats blood after 10 mins by gamma counter; assay type: ADME, organism-based; conditions: rat, in vivo
Muscle tissue [7] = test: Biodistribution in iv dosed Sprague-Dawley rats muscle after 10 mins by gamma counter; assay type: ADME, organism-based; conditions: rat, in vivo
[8] = Biodistribution in iv dosed Sprague-Dawley rats small intestine after 2 mins by gamma counter; assay type: ADME, organism-based; conditions: rat, in vivo
Liver [9] = test: Biodistribution in iv dosed Sprague-Dawley rats liver after 10 mins by gamma counter; assay type: ADME, organism-based; conditions: rat, in vivo
Spleen [10] = test: Biodistribution in iv dosed Sprague-Dawley rats spleen after 60 mins by gamma counter; assay type: ADME, organism-based; conditions: rat, in vivo, 1 h
Blood [11] = test: Biodistribution in iv dosed Sprague-Dawley rats blood after 30 mins by gamma counter; assay type: ADME, organism-based; conditions: rat, in vivo, 0.5 h
Lung [12] = test: Biodistribution in iv dosed Sprague-Dawley rats lung after 2 mins by gamma counter; assay type: ADME, organism-based; conditions: rat, in vivo
Lung [13] = test: Biodistribution in iv dosed Sprague-Dawley rats lung after 30 mins by gamma counter; assay type: ADME, organism-based; conditions: rat, in vivo, 0.5 h
[14] = Biodistribution in iv dosed Sprague-Dawley rats small intestine after 30 mins by gamma counter; assay type: ADME, organism-based; conditions: rat, in vivo, 0.5 h
[15] = Biodistribution in iv dosed Sprague-Dawley rats small intestine after 10 mins by gamma counter; assay type: ADME, organism-based; conditions: rat, in vivo
Blood [16] = test: Biodistribution in iv dosed Sprague-Dawley rats blood after 60 mins by gamma counter; assay type: ADME, organism-based; conditions: rat, in vivo, 1 h
Kidney [17] = test: Biodistribution in iv dosed Sprague-Dawley rats kidneys after 2 mins by gamma counter; assay type: ADME, organism-based; conditions: rat, in vivo
Liver [18] = test: Biodistribution in iv dosed Sprague-Dawley rats liver after 2 mins by gamma counter; assay type: ADME, organism-based; conditions: rat, in vivo
[19] = Drug uptake in high GABAA expression areas of Wistar rat brain prefrontal cortex at 0.1 MBq/ml after 60 mins by autoradiographic analysis; assay type: ADME, tissue-based; conditions: in vivo, 1 h
[20] = Biodistribution in iv dosed Sprague-Dawley rats fat after 30 mins by gamma counter; assay type: ADME, organism-based, Adipose tissue; conditions: rat, in vivo, 0.5 h
Kidney [21] = test: Biodistribution in iv dosed Sprague-Dawley rats kidneys after 60 mins by gamma counter; assay type: ADME, organism-based; conditions: rat, in vivo, 1 h
Heart [22] = test: Biodistribution in iv dosed Sprague-Dawley rats heart after 10 mins by gamma counter; assay type: ADME, organism-based; conditions: rat, in vivo
Heart [23] = test: Biodistribution in iv dosed Sprague-Dawley rats heart after 60 mins by gamma counter; assay type: ADME, organism-based; conditions: rat, in vivo, 1 h
Spleen [24] = test: Biodistribution in iv dosed Sprague-Dawley rats spleen after 2 mins by gamma counter; assay type: ADME, organism-based; conditions: rat, in vivo
[25] = Drug uptake in Wistar rat brain prefrontal cortex olfactory tubercles at 0.1 MBq/ml after 60 mins by autoradiographic analysis; assay type: ADME, tissue-based; conditions: in vivo, 1 h
Liver [26] = test: Biodistribution in iv dosed Sprague-Dawley rats liver after 60 mins by gamma counter; assay type: ADME, organism-based; conditions: rat, in vivo, 1 h
Brain [27] = test: Biodistribution in iv dosed Sprague-Dawley rats brain after 10 mins by gamma counter; assay type: ADME, organism-based; conditions: rat, in vivo
Bone = test: Biodistribution in iv dosed Sprague-Dawley rats bone after 2 mins by gamma counter; assay type: ADME, organism-based, Bone element; conditions: rat, in vivo
Kidney [28] = test: Biodistribution in iv dosed Sprague-Dawley rats kidneys after 30 mins by gamma counter; assay type: ADME, organism-based; conditions: rat, in vivo, 0.5 h
Lung [29] = test: Biodistribution in iv dosed Sprague-Dawley rats lung after 10 mins by gamma counter; assay type: ADME, organism-based; conditions: rat, in vivo
[30] = Biodistribution in iv dosed Sprague-Dawley rats fat after 0.5 min by gamma counter; assay type: ADME, organism-based, Adipose tissue; conditions: rat, in vivo
Muscle tissue [31] = test: Biodistribution in iv dosed Sprague-Dawley rats muscle after 0.5 min by gamma counter; assay type: ADME, organism-based; conditions: rat, in vivo
Brain [32] = test: Biodistribution in iv dosed Sprague-Dawley rats brain after 30 mins by gamma counter; assay type: ADME, organism-based; conditions: rat, in vivo, 0.5 h
[33] = Biodistribution in iv dosed Sprague-Dawley rats stomach after 2 mins by gamma counter; assay type: ADME, organism-based; conditions: rat, in vivo
Spleen [34] = test: Biodistribution in iv dosed Sprague-Dawley rats spleen after 0.5 min by gamma counter; assay type: ADME, organism-based; conditions: rat, in vivo
Liver [35] = test: Biodistribution in iv dosed Sprague-Dawley rats liver after 0.5 min by gamma counter; assay type: ADME, organism-based; conditions: rat, in vivo
Muscle tissue [36] = test: Biodistribution in iv dosed Sprague-Dawley rats muscle after 60 mins by gamma counter; assay type: ADME, organism-based; conditions: rat, in vivo, 1 h
[37] = Drug uptake in low GABAA expression areas of Wistar rat brain thalamus/striatum cortex at 0.1 MBq/ml after 60 mins by autoradiographic analysis; assay type: ADME, tissue-based; conditions: in vivo, 1 h

- Drug uptake (Brain [1]): 0 %ID
- Drug uptake [2]: 4.2 %ID
- Drug uptake (Heart [3]): 2 %ID
- Drug uptake (Heart [4]): 0.2 %ID
- Drug uptake (Heart [5]): 1.1 %ID
- Drug uptake (Blood [6]): 2.8 %ID
- Drug uptake (Muscle tissue [7]): 27.2 %ID
- Drug uptake [8]: 7 %ID
- Drug uptake (Liver [9]): 33.7 %ID
- Drug uptake (Spleen [10]): 0 %ID
- Drug uptake (Blood [11]): 1.5 %ID
- Drug uptake (Lung [12]): 1.5 %ID
- Drug uptake (Lung [13]): 0.4 %ID
- Drug uptake [14]: 50.3 %ID
- Drug uptake [15]: 24.5 %ID
- Drug uptake (Blood [16]): 0.7 %ID
- Drug uptake (Kidney [17]): 3.6 %ID
- Drug uptake (Liver [18]): 28.5 %ID
- Drug uptake [19]: 78%
- Drug uptake [20]: 1.7 %ID
- Drug uptake (Kidney [21]): 0.5 %ID
- Drug uptake (Heart [22]): 0.3 %ID
- Drug uptake (Heart [23]): 0.1 %ID
- Drug uptake (Spleen [24]): 0.3 %ID
- Drug uptake [25]: 60%
- Drug uptake (Liver [26]): 4.8 %ID
- Drug uptake (Brain [27]): 0.1 %ID
- Drug uptake (Bone): 3 %ID
- Drug uptake (Kidney [28]): 1.5 %ID
- Drug uptake (Lung [29]): 0.6 %ID
- Drug uptake [30]: 0.6 %ID
- Drug uptake (Muscle tissue [31]): 56.1 %ID
- Drug uptake (Brain [32]): 0.1 %ID
- Drug uptake [33]: 1.2 %ID
- Drug uptake (Spleen [34]): 0.2 %ID
- Drug uptake (Liver [35]): 14.6 %ID
- Drug uptake (Muscle tissue [36]): 4.6 %ID
- Drug uptake [37]: 76%
Compound: O=C(NCC[18F])c1c[nH]c2ccc(Cc3ccccc3)cc2c1=O
